Patent publication US20090275653A1, “POLYMORPHIC FORMS OF LADOSTIGIL TARTRATE” (priority 2005, published 2009)
“Also recorded” adds a separate entry of the source.

Legend:
Type in all cases: physicochemical
[1] = Water content (Karl Fischer) and loss on drying (TGA) of the form as obtained; conditions: for Water content: by weight
Experimental: (§1) TGA analysis was performed using a Mettler M3 meter. The weight of the samples was about 10 mg. The samples were scanned at a rate of 10° C./min from 25° C. to 200° C. The oven was constantly purged with nitrogen gas at a flow rate of 40 ml/min. Standard 70 μl alumina crucibles covered by lids with 1 hole were used.
(§2) The water content of ladostigil tartrate was measured by methods known in the art, such Karl Fischer analysis.

[2] = Effect of micronization, pressing and grinding (XRD)
Experimental: The effects of micronization, pressing (1 minute at 100 metric tons) and grinding were determined by XRD and the following results were obtained: […]

[3] = Hygroscopicity study: exposure to 0-100% relative humidity at room temperature (Karl Fischer, TGA, crystal form by XRD)
Description: Form E was placed for 1 week under 0-100% relative humidity at room temperature. Table 1 summarizes the results:
Form F was placed for 14 days under 0-100% relative humidity at room temperature. Table 2 summarizes the results:
Form H was placed for 14 days under 0-100% relative humidity at room temperature. Table 3 summarizes the results:
Form J1 was placed for 9 days under 0-100% relative humidity at room temperature. Table 4 summarizes the results:
Table 5 summarizes the results:
(§3) X-Ray powder diffraction data were obtained by method known in the art using a SCINTAG powder X-Ray diffractometer model X'TRA equipped with a solid state detector. Copper radiation of 1.5418 Å was used. A round aluminum sample holder with round zero background quartz plate, with a cavity of 25(diameter)*0.5(depth) mm was used.
as §1, §2
Crystal form was determined after equilibration of ladostigil tartrate form A for 10 days at various relative humidities at room temperature.
Form A1 was exposed at various humidity conditions at room temperature for 13 days.
Ladostigil tartrate form A1 was exposed to various humidity conditions at room temperature for 14 days. TGA was performed, and the crystal form was analyzed.
A mixture of ladostigil tartrate form A1 and E, containing primarily form A1, was exposed at various humidity conditions at room temperature for 14 days.
Form E was placed for 7 days under 0-100% relative humidity at room temperature. Table 12 summarizes the results:
Form F was placed for 14 days under 0-100% relative humidity at room temperature. Table 14 summarizes the results:
Ladostigil tartrate Form H was exposed for 14 days under 0-100% relative humidity at room temperature. Table 15 summarizes the results:
Crystal ladostigil tartrate Form J1 was placed for 9 days under 0-100% relative humidity at room temperature.

[4] = Effect of heating on polymorph form
Experimental: as §3
The heated sample was analyzed by XRD. Form A1 was obtained.
Various polymorph forms and mixtures thereof were heated. The heating conditions and resulting polymorph forms are described in table 17 below: […]

[5] = Transformation of crystal form upon standing; conditions: upon standing (a few hours)
Experimental: The wet material was determined to be polymorph C. Some of the samples contained polymorph C with low crystallinity. The wet material was dried at 55° C. under vacuum for 17 hours, giving polymorph E. The wet polymorph with low crystallinity was transformed to polymorph E with low crystallinity upon drying under the same conditions. Both polymorph E and polymorph E with low crystallinity were transformed to form A upon standing.
The wet material was dried at 80° C. under vacuum for 17 hours and polymorph E was formed.

[6] = pressing 1 minute at 100 metric tons
[7] = 100% RH, equilibration 10 days, room temperature
[8] = 0% RH, 14 days, room temperature
[9] = 20% RH, 14 days, room temperature
[10] = 40% RH, 14 days, room temperature
[11] = 60% RH, 14 days, room temperature
[12] = 80% RH, 14 days, room temperature
[13] = 100% RH, 14 days, room temperature
[14] = 0% RH, 9 days, room temperature
[15] = 40% RH, 9 days, room temperature
[16] = 60% RH, 9 days, room temperature
[17] = 100% RH, 9 days, room temperature

With “carbamic acid, ethylmethyl-, (3R)-2,3-dihydro-3-(2-propynylamino)-1H-inden-5-yl ester, (2R,3R)-2,3-dihydroxybutanedioate (2:1) [Essentially Amorphous Form]” the “Weight loss / loss on drying by TGA” value [1] was “about 5%” and the Water content [1] was “about 2%”.
In the case of “carbamic acid, ethylmethyl-, (3R)-2,3-dihydro-3-(2-propynylamino)-1H-inden-5-yl ester, (2R,3R)-2,3-dihydroxybutanedioate (2:1) [Form A]”, the “Weight loss / loss on drying by TGA” value [1] is reported as “about 0.3%”, the Water content [1] is reported as “about 0.3%” and the “Crystal form after grinding” value ([2]; grinding) is reported as “mixture of Forms A and A1”. For the same substance, the “Crystal form after pressing” value [2, 6] was “mainly to Form A1”, the Crystallinity after pressing [2, 6] was “lose some extent of crystallinity” and the Water content ([3]; 20% RH, equilibration 10 days, room temperature) was 0.3%. It also gave a Water content ([3]; 40% RH, equilibration 10 days, room temperature) of 0.3%, a Water content ([3]; 60% RH, equilibration 10 days, room temperature) of 0.3% and a Water content ([3]; 80% RH, equilibration 10 days, room temperature) of 0.3%. The Crystal Form [3, 7] was “stable”, the Water content [3, 7] was 0.2% and the Hygroscopicity ([3]; conclusion in words) was “neither Form A nor Form A1 is hygroscopic; also recorded: non-hygroscopic”. The “Crystal form upon exposure to high relative humidity” value ([3]; high relative humidity, in words) was “does not change crystalline form”.
With “carbamic acid, ethylmethyl-, (3R)-2,3-dihydro-3-(2-propynylamino)-1H-inden-5-yl ester, (2R,3R)-2,3-dihydroxybutanedioate (2:1) [Form B]” the “Weight loss / loss on drying by TGA” value [1] was “about 1%” and the “Resulting form after heating/drying” value ([4]; 80° C., time not specified) was “mixture of Form A1 and form E, primarily form A1”.
In the case of “carbamic acid, ethylmethyl-, (3R)-2,3-dihydro-3-(2-propynylamino)-1H-inden-5-yl ester, (2R,3R)-2,3-dihydroxybutanedioate (2:1) [Form C]”, the “Weight loss / loss on drying by TGA” value [1] is reported as “about 40%”, the Water content [1] is reported as “about 2%” and the “Resulting form after heating/drying” value ([4]; 50° C. under vacuum, 1 hour) is reported as “Form C was still detected”. The “Resulting form after heating/drying” value ([4]; 50° C. under vacuum, 12 hours) was “Form B”, the “Resulting form after heating/drying” value ([4]; 55° C. under vacuum, 17 hours) was “Form E” and the “Resulting form after heating/drying” value ([4]; 55° C., 17 hours) was “Form B”. The “Resulting form after heating/drying” value ([4]; 55° C., 19 hours) was “Form B”.
With “carbamic acid, ethylmethyl-, (3R)-2,3-dihydro-3-(2-propynylamino)-1H-inden-5-yl ester, (2R,3R)-2,3-dihydroxybutanedioate (2:1) [Form E]” the “Weight loss / loss on drying by TGA” value [1] was 0.7-2%, the Water content [1] was 0.7-2% and the “Crystal form after standing” value ([5]; listed as Polymorph E) was “mixture of polymorphs A and A1”. The “Crystal form after standing” value ([5]; listed as polymorph E) was “form A”, the “Water content by Karl Fisher” value ([3]; 0% RH, 1 week (7 days), room temperature) was 0.7% and the “Relative humidity range in which the form is stable” value (shortened to “Relative humidity range”) ([3]; 1 week, room temperature) was 0-60 % RH. For the same substance, the “Water content by Karl Fisher” value ([3]; 20% RH, 1 week (7 days), room temperature) was 0.7%, the “Water content by Karl Fisher” value ([3]; 40% RH, 1 week (7 days), room temperature) was 1.5% and the “Water content by Karl Fisher” value ([3]; 60% RH, 1 week (7 days), room temperature) was 1.8%. For the same substance, the “Water content by Karl Fisher” value ([3]; 80% RH, 1 week (7 days), room temperature) was 0.5% and the “Water content by Karl Fisher” value ([3]; 100% RH, 1 week (7 days), room temperature) was 0.5%.
In the case of “carbamic acid, ethylmethyl-, (3R)-2,3-dihydro-3-(2-propynylamino)-1H-inden-5-yl ester, (2R,3R)-2,3-dihydroxybutanedioate (2:1) [Form F]”, the “Weight loss / loss on drying by TGA” value [1] is reported as “about 3%”, the Water content [1] is reported as 1.3-2.6% and the “Crystal Form (resulting form)” value [3, 8] is reported as “Form F”. For the same substance, the “Water content by Karl Fisher” value [3, 8] was 1.3%, the “Crystal Form (resulting form)” value [3, 9] was “Form F” and the “Loss on Dry by TGA” value [3, 9] was 3.0%. For the same substance, the “Water content by Karl Fisher” value [3, 9] was 2.2%, the “Crystal Form (resulting form)” value [3, 10] was “Form F” and the “Loss on Dry by TGA” value [3, 10] was 2.9%. The “Water content by Karl Fisher” value [3, 10] was 2.6%, the “Crystal Form (resulting form)” value [3, 11] was “Form A1 + ~10% E” and the “Loss on Dry by TGA” value [3, 11] was 0.3%. The “Water content by Karl Fisher” value [3, 11] was 0.3%, the “Crystal Form (resulting form)” value [3, 12] was “Form A1 + ~20% A” and the “Loss on Dry by TGA” value [3, 12] was 0.2%. For the same substance, the “Water content by Karl Fisher” value [3, 12] was 0.3%, the “Loss on Dry by TGA” value [3, 13] was 0.3% and the “Water content by Karl Fisher” value [3, 13] was 0.3%. For the same substance, the “Relative humidity range” value ([3]; 14 days, room temperature) was 0-40 % RH.
With “carbamic acid, ethylmethyl-, (3R)-2,3-dihydro-3-(2-propynylamino)-1H-inden-5-yl ester, (2R,3R)-2,3-dihydroxybutanedioate (2:1) [Form H]” the “Weight loss / loss on drying by TGA” value [1] was “about 6%”, the Water content [1] was “about 0.6%” and the “Crystal Form (resulting form)” value [3, 8] was “Form H”. The “Loss on Dry by TGA” value [3, 8] was 6.1%, the “Water content by Karl Fisher” value [3, 8] was 0.42% and the “Crystal Form (resulting form)” value [3, 9] was “Form F”. The “Loss on Dry by TGA” value [3, 9] was 5.2%, the “Water content by Karl Fisher” value [3, 9] was 0.7% and the “Crystal Form (resulting form)” value [3, 10] was “Form L”. The “Loss on Dry by TGA” value [3, 10] was 2.7%, the “Water content by Karl Fisher” value [3, 10] was 1.4% and the “Crystal Form (resulting form)” value [3, 11] was “Form A1 + ~30% E”. For the same substance, the “Loss on Dry by TGA” value [3, 11] was 0.5%, the “Water content by Karl Fisher” value [3, 11] was 0.3% and the “Crystal Form (resulting form)” value [3, 12] was “Form A1 + ~20% A”. For the same substance, the “Loss on Dry by TGA” value [3, 12] was 0.2%, the “Water content by Karl Fisher” value [3, 12] was 0.2% and the “Crystal Form (resulting form)” value [3, 13] was “Form A + ~30% A1”. For the same substance, the “Loss on Dry by TGA” value [3, 13] was 0.2% and the “Water content by Karl Fisher” value [3, 13] was 0.3%.
For “carbamic acid, ethylmethyl-, (3R)-2,3-dihydro-3-(2-propynylamino)-1H-inden-5-yl ester, (2R,3R)-2,3-dihydroxybutanedioate (2:1) [Form J1]”, the “Weight loss / loss on drying by TGA” value [1] was “about 10%”, the Water content [1] was “about 1%” and the “Crystal Form” value [3, 14] was “Form J1”. The “Loss on Dry by TGA” value [3, 14] was 5.4%, the “Water content by Karl Fisher” value [3, 14] was 0.1% and the “Crystal Form” value ([3]; 20% RH, 9 days, room temperature) was “partly to Form K; also recorded: Form K + ~20% J1”. The “Crystal Form” value [3, 15] was “Form K”, the “Loss on Dry by TGA” value [3, 15] was 0.8% and the “Water content by Karl Fisher” value [3, 15] was 0.2%. The “Crystal Form” value [3, 16] was “Form K”, the “Loss on Dry by TGA” value [3, 16] was 0.5% and the “Water content by Karl Fisher” value [3, 16] was 0.2%. For the same substance, the “Crystal Form” value ([3]; 80% RH, 9 days, room temperature) was “Form A1 + ~20% A”, the “Crystal Form” value [3, 17] was “Form A + ~30% A1” and the “Loss on Dry by TGA” value [3, 17] was 0.1%. The “Water content by Karl Fisher” value [3, 17] was 0.0%.
In the case of “carbamic acid, ethylmethyl-, (3R)-2,3-dihydro-3-(2-propynylamino)-1H-inden-5-yl ester, (2R,3R)-2,3-dihydroxybutanedioate (2:1) [Form K]”, the “Weight loss / loss on drying by TGA” value [1] is reported as 0.5-0.8%, the Water content [1] is reported as “about 0.2%” and the “Relative humidity range” value ([3]; from the 9 day study of Form J1, room temperature) is reported as 20-60 % RH.
For “carbamic acid, ethylmethyl-, (3R)-2,3-dihydro-3-(2-propynylamino)-1H-inden-5-yl ester, (2R,3R)-2,3-dihydroxybutanedioate (2:1) [Form L]”, the “Weight loss / loss on drying by TGA” value [1] was 2.7-13.8%, the Water content [1] was 0.6-1.4% and the “Resulting form after heating/drying” value ([4]; 60° C. in conventional oven, 2 hours) was “polymorphically stable”.
